Test results taken from ChEMBL document CHEMBL1201862, “PubChem BioAssay data set” (2004).
Calls of active or inactive are those of the source. Unless noted, no cut-off for these calls is given here.

What was measured:
[1] = biological target: Luciferin 4-monooxygenase (Photinus pyralis, UniProt P08659); assay: firefly luciferase enzyme inhibitors, dose response, biochemical, luminescence (AID 1891)
[2] = blockers of SFLLRN-triggered platelet ATP secretion – cell-based, human platelets, luminescence, dry powder, dose response (AID 493100); type: functional
[3] = Luminescence Cell-Based Dose Response Follow up to Identify Inhibitors of Platelet Dense Granule Release. [Related pubchem assays (depositor defined):AID1663, AID1678, AID1889, AID2519]; type: functional
[4] = SFLLRN-induced P-Selectin Platelet Surface Expression Measured in Cell-Based System Using Flow Cytometry - 2016-03_Inhibitor_Dose_DryPowder_Activity_Set3. [Related pubchem assays (depositor defined):AID1678]; type: functional
[5] = Luminescence Cell-Based Dose Confirmation HTS to Identify Inhibitors of Platelet Dense Granule Release. [Related pubchem assays: 1663 (Primary HTS), 1678 (Summary of Project)]; type: functional
[6] = inhibitors of SFLLRN-triggered platelet P-selectin exposure, dose response, cell-based, fluorescence, flow cytometry, human platelets (AID 2511); type: functional
[7] = biological target: T1, Heat shock factor protein 1 (Mus musculus, UniProt P38532); assay: HSF1 potentiators in luciferase reporter cells, confirmation, cell-based, NIH3T3, luminescence, dose retest (AID 435004); type: functional;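 note: stress induced by proteasome inhibitor MG132 added 30 min after compound; luciferase reporter driven by HSF1 response element in NIH3T3 cells; actives raise luminescence as potentiators of the MG132 stress response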
T1 sequence (P38532 whole entry): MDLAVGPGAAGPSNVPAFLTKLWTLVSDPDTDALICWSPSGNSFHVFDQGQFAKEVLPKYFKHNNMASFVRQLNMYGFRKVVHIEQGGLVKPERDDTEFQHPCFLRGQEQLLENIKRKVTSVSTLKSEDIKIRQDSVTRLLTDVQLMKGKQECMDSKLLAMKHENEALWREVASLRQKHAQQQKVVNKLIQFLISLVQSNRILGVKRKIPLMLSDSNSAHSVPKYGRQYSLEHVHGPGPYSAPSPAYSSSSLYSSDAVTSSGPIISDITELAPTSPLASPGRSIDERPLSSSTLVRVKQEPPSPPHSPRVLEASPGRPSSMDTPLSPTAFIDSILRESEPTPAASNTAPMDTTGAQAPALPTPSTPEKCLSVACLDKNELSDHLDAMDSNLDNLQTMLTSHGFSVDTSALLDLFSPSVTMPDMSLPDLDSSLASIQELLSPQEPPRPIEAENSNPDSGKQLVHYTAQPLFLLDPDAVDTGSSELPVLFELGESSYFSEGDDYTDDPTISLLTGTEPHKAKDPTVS

[8] = biological target: Heat shock protein HSP 90-alpha (Homo sapiens, UniProt P07900); type: functional, organism-based
[9] = tested on: INS1; assay: beta cell apoptosis inhibitors, cytokine rescue, dose response, luminescence, retest (AID 449756); type: functional, cell-based; details: Rattus norvegicus;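 note: cell death triggered by IL-1 beta plus TNF-alpha plus IFN-gamma mixture; protective hits raise ATP signal compared with cytokine alone wells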
[10] = cytotoxicity in HEK-293T cells, dose response, cytotoxicity control for TCR NF-kB inhibitor project, luminescence, T-cell screen hits (AID 489026); type: functional, cell-based;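 note: cells exposed to compound about 14 hours before the viability readout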
[11] = biological target: Dual specificity protein phosphatase 3 (Homo sapiens, UniProt P51452); assay: SAR VHR1 Fluorescent Assay for In Vitro dose response studies Set 3. [Related pubchem assays (depositor defined):AID1654, AID1661, AID1878]; type: functional
Dual specificity protein phosphatase 3, sequence (P51452 whole entry): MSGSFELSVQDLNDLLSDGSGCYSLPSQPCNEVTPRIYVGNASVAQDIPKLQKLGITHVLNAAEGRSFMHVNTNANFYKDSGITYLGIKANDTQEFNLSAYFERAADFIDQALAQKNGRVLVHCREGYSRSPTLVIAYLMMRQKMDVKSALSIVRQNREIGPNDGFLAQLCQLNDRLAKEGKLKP

[12] = biological target: 72 kDa type IV collagenase (Homo sapiens, UniProt P08253); assay: Dose Response validation of uHTS RPN11 inhibitor hits using a MMP-2 Fluorescence assay.; type: functional
72 kDa type IV collagenase, sequence (P08253 whole entry): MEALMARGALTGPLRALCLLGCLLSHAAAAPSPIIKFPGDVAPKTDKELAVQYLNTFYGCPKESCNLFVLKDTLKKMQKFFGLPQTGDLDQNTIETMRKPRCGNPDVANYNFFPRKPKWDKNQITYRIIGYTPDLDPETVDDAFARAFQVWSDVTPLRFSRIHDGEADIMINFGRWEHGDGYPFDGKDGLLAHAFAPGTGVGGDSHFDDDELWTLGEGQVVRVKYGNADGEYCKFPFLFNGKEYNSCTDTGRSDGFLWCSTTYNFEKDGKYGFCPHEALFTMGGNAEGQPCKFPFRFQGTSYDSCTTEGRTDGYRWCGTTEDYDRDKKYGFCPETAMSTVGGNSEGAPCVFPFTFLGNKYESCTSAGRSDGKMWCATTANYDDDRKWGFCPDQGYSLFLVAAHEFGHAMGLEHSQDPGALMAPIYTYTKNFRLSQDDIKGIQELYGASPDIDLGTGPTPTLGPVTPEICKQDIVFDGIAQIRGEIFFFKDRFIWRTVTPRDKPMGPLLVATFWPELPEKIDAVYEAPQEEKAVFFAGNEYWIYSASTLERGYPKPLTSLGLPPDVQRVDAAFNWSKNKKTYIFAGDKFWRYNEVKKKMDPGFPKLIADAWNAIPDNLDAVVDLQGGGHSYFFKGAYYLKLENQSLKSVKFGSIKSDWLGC

[13] = biological target: Prothrombin (Bos taurus, UniProt P00735); assay: thrombin inhibition, dose response, biochemical, fluorescence polarization, uHTS hits (AID 602369); type: functional
[14] = biological target: 26S proteasome non-ATPase regulatory subunit 14 (Homo sapiens, UniProt O00487); assay: inhibition of proteasome subunit RPN11 – biochemical, fluorescence polarization, uHTS hits, confirmation (AID 602368); type: functional
26S proteasome non-ATPase regulatory subunit 14, sequence (O00487 whole entry): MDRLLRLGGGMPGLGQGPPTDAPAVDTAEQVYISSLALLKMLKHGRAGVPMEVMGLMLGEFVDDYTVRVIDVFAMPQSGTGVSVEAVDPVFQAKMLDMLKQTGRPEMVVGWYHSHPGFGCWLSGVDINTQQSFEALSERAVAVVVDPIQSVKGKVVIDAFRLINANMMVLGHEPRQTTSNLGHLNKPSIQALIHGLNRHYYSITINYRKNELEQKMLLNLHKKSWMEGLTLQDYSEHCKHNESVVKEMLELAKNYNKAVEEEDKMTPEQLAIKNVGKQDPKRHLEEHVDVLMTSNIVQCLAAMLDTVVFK

[15] = biological target: Cytochrome P450 3A4 (Homo sapiens, UniProt P08684);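 note: CYP3A4 tested as one member of a cytochrome P450 panel screen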
Cytochrome P450 3A4, sequence (P08684 whole entry): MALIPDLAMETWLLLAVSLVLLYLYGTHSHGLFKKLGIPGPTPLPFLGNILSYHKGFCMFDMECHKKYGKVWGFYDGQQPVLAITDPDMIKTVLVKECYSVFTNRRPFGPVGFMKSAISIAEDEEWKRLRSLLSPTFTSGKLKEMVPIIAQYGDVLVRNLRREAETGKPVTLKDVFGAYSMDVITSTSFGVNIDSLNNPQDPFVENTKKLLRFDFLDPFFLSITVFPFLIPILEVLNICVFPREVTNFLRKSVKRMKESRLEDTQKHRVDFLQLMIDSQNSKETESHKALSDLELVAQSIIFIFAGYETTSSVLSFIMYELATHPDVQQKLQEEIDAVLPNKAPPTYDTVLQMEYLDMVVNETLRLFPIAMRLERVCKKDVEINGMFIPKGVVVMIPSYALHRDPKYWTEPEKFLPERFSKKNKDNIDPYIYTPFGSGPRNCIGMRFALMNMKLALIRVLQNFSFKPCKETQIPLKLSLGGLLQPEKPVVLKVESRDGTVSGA

[16] = Luminescence Cell-Based Dose Retest to Confirm Inhibitors of Cancer Stem Cells. [Related pubchem assays (depositor defined):AID2717, AID2721]; type: functional; details: Homo sapiens
[17] = cytotoxicity in HMLE control line with eGFP shRNA, dose response, counter-screen for HMLE_sh_ECad selective toxicity project, cell-based, HMLE_sh_eGFP, luminescence (AID 463074); type: functional, Homo sapiens;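 note: HMLE human mammary epithelial cells expressing control shRNA against eGFP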
[18] = tested on: MDCK; assay: MDCK cell cytotoxicity, dose response, cytotoxicity control (AID 540296); type: functional; details: Canis lupus familiaris
[19] = tested on: MDCK; assay: antiviral activity against H1N1 influenza, dose response, cell-based, strain KY180 (AID 540254); type: functional; details: Canis lupus familiaris

Luciferin 4-monooxygenase, sequence (P08659 whole entry): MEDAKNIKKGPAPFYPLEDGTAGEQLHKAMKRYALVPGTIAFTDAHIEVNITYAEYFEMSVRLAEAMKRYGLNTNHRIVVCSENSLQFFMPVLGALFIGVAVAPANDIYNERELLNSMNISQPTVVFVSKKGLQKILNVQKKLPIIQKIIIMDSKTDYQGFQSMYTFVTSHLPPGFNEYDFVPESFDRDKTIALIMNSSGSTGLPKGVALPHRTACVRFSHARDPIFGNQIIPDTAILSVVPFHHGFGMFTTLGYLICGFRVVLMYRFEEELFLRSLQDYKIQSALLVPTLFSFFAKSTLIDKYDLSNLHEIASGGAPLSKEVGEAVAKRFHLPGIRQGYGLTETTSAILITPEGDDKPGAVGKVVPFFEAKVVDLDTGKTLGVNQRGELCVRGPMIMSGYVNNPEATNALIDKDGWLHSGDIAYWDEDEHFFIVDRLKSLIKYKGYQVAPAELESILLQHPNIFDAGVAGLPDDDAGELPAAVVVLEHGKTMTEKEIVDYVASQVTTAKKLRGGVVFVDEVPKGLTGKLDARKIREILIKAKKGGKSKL

Which results are given for `CCC(=O)Nc1cccc(NC(=O)c2ccccc2Br)c1`?
EC50 [1]: > 112 µM (not active); AC50 [2]: 21.2 µM (active); EC50 [3]: 14 µM (active); AC50 [4]: < 3.12 µM (active); EC50 [5]: 4.32 µM (active); EC50 [6]: < 1 µM (active)

With `Cc1cccc(N=Nc2ccc(O)c3ncccc23)c1` as the compound, how does the EC50 [7] read?
Its EC50 is 4.58 µM (active).

And the AC50 [8]?
The AC50 was 3.91 µM (active).

What about the AC50 [9] of the same compound?
The AC50 was 1.78 µM (active).

And the IC50 [10]?
Its IC50 is > 80 µM (inactive).

With `Cc1c(NC(=O)c2cc(-n3cnnc3)ccc2Cl)cccc1-c1nc2ccccc2s1` as the compound, how does the IC50 [11] read?
The IC50 was 18.3 µM (active).

What does the source list for `O=C1c2cccc3cccc(c23)C(=O)N1c1ccc2ncccc2c1`?
IC50 [12]: 23 µM (active); IC50 [13]: 82.1 µM (active); IC50 [14]: 23.9 µM (active)

Which AC50 [15] does the source give for `O=C(COc1ccccc1Cl)Nc1cc(Cl)ccc1Oc1ccccc1` here?
Its AC50 is 15.8 µM (inconclusive).

What about the AC50 [16] of the same compound?
Its AC50 is 3.01 µM (active).

And the AC50 [17]?
Its AC50 is 120 µM (active).

With `CC(c1ccccn1)N(CCN(C)C)C(S)=Nc1cccc(F)c1` (centres undefined) as the compound, how does the CC50 [18] read?
The CC50 was > 40 µM (active).

And the IC50 [19]?
Its IC50 is 64.7 µM (active).
